From patent US20100227859A1, “TRICYCLIC COMPOUNDS AS MATRIX METALLOPROTEINASE INHIBITORS” (priority 2007, published 2010)

These molecules were tested against purified human MMP-12 enzyme (Homo sapiens, UniProt P39900) (assay: MMP-12 FRET assay). Details: substrate 20 μM, room temperature.
Sequence of purified human MMP-12 enzyme (P39900 106-470): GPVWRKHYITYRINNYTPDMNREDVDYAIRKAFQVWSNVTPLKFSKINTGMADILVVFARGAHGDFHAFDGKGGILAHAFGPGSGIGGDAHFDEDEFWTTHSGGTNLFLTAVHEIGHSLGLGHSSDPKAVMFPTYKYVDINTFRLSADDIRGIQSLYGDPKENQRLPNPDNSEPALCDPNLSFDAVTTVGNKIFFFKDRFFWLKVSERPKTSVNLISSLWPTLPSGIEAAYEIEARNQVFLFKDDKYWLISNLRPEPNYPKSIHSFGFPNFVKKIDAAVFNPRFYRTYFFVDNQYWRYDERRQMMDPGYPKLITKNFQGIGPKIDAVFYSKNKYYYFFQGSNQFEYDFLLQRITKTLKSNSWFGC
Type: biochemical
Summary of the method: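 Initial fluorescence rate (325/395 nm) of cleavage of MCA-Pro-Leu-Gly-Leu-Dpa(DNP)-Ala-Arg, 20 μM final, was followed for 30 min at room temperature after a 30 min enzyme–compound preincubation. Buffer: 50 mM HEPES pH 7.4, 100 mM NaCl, 5 mM CaCl2, 0.005% Brij-35, with 10% final DMSO. IC50 came from a Hill-type fit of rate versus inhibitor concentration.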
With `CONC(=N)c1ccc2oc3cc(S(=O)(=O)N[C@H](C(=O)O)C(C)C)ccc3c2c1` [Compound 108, (S)-2-(8-(N-methoxycarbamimidoyl)dibenzo[b,d]furan-3-sulfonamido)-3-methylbutanoic acid] the IC50 was 2 nM.
With `CCN=C(NCC)c1ccc2oc3cc(S(=O)(=O)N[C@H](C(=O)O)C(C)C)ccc3c2c1` [Compound 109, (S)-2-(8-(N,N′-diethylcarbamimidoyl)dibenzo[b,d]furan-3-sulfonamido)-3-methylbutanoic acid] the IC50 was 640 nM.
With `CC(C)[C@H](NS(=O)(=O)c1ccc2c(c1)oc1ccc(C(=N)N(C)C(C)C)cc12)C(=O)O` [Compound 110, (S)-2-(8-(N-isopropyl-N-methylcarbamimidoyl)dibenzo[b,d]furan-3-sulfonamido)-3-methylbutanoic acid] the IC50 was 425 nM.
For `CC(C)[C@H](NS(=O)(=O)c1ccc2c(c1)oc1ccc(-c3ccc(C(N)=O)s3)cc12)C(=O)O` [Compound 111, (S)-2-(8-(5-carbamoylthiophen-2-yl)dibenzo[b,d]furan-3-sulfonamido)-3-methylbutanoic acid], the IC50 was < 1.5 nM.
Work on `CC(C)[C@H](NS(=O)(=O)c1ccc2c(c1)oc1ccc(-c3ccc(C(=O)O)s3)cc12)C(=O)O` [Compound 112, (S)-5-(7-(N-(1-carboxy-2-methylpropyl)sulfamoyl)dibenzo[b,d]furan-2-yl)thiophene-2-carboxylic acid] yielded an IC50 of 52 nM.
`COc1ncc(-c2ccc3c(c2)oc2ccc(S(=O)(=O)N[C@@H](C(=O)O)C(C)C)cc23)c(OC)n1` [Compound 115, (R)-2-(7-(2,4-dimethoxypyrimidin-5-yl)dibenzo[b,d]furan-2-sulfonamido)-3-methylbutanoic acid] showed an IC50 of 290 nM.
`CC(C)[C@@H](NS(=O)(=O)c1ccc2oc3cc(-c4ccc[nH]4)ccc3c2c1)C(=O)O` [Compound 116, (R)-2-(7-(1H-pyrrol-2-yl)dibenzo[b,d]furan-2-sulfonamido)-3-methylbutanoic acid] gave an IC50 of 3.1 nM.
`CC(C)[C@@H](NS(=O)(=O)c1ccc2oc3cc(-c4cnn(C)c4)ccc3c2c1)C(=O)O` [Compound 117, (R)-3-methyl-2-(7-(1-methyl-1H-pyrazol-4-yl)dibenzo[b,d]furan-2-sulfonamido)butanoic acid] showed an IC50 of 2.8 nM.
`CC(C)[C@@H](NS(=O)(=O)c1ccc2oc3cc(-c4cccs4)ccc3c2c1)C(=O)O` [Compound 118, (R)-3-methyl-2-(7-(thiophen-2-yl)dibenzo[b,d]furan-2-sulfonamido)butanoic acid] was tested, and the IC50 was 0.6 nM.
`CC(C)[C@@H](NS(=O)(=O)c1ccc2oc3cc(-c4cc5ccccc5o4)ccc3c2c1)C(=O)O` [Compound 119, (R)-2-(7-(benzofuran-2-yl)dibenzo[b,d]furan-2-sulfonamido)-3-methylbutanoic acid] showed an IC50 of 8.3 nM.
In the case of `CC(C)[C@@H](NS(=O)(=O)c1ccc2oc3cc(-c4ccc(C(F)(F)F)cc4)ccc3c2c1)C(=O)O` [Compound 120, (R)-3-methyl-2-(7-(4-(trifluoromethyl)phenyl)dibenzo[b,d]furan-2-sulfonamido)butanoic acid], the IC50 is reported as 2.2 nM.
In the case of `CC(C)[C@@H](NS(=O)(=O)c1ccc2oc3cc(-c4cc5ccccc5n4C)ccc3c2c1)C(=O)O` [Compound 121, (R)-3-methyl-2-(7-(1-methyl-1H-indol-2-yl)dibenzo[b,d]furan-2-sulfonamido)butanoic acid], the IC50 is reported as 140 nM.
For `CC(C)[C@@H](NS(=O)(=O)c1ccc2oc3cc(-c4cc5cc(F)ccc5[nH]4)ccc3c2c1)C(=O)O` [Compound 122, (R)-2-(7-(5-fluoro-1H-indol-2-yl)dibenzo[b,d]furan-2-sulfonamido)-3-methylbutanoic acid], the IC50 was 6.9 nM.
In the case of `CC(C)[C@H](NS(=O)(=O)c1ccc2c(c1)oc1ccc(-c3ccc(F)s3)cc12)C(=O)O` [Compound 124, (S)-2-(8-(5-fluorothiophen-2-yl)dibenzo[b,d]furan-3-sulfonamido)-3-methylbutanoic acid], the IC50 is reported as < 1.5 nM.
`CC(C)[C@H](NS(=O)(=O)c1ccc2c(c1)oc1ccc(-c3ccc4oc5cc(S(=O)(=O)N[C@H](C(=O)O)C(C)C)ccc5c4c3)cc12)C(=O)O` [Compound 125] showed an IC50 of 17 nM.
With `CC(C)[C@H](NS(=O)(=O)c1ccc2c(c1)oc1ccc(-c3nc(C(F)(F)F)cs3)cc12)C(=O)O` [Compound 126, (S)-3-methyl-2-(8-(4-(trifluoromethyl)thiazol-2-yl)dibenzo[b,d]furan-3-sulfonamido)butanoic acid] the IC50 was < 1.5 nM.
For `CC(C)[C@H](NS(=O)(=O)c1ccc2c(c1)oc1ccc(C(=N)N3CCCC3)cc12)C(=O)O` [Compound 127, (S)-2-(8-(imino(pyrrolidin-1-yl)methyl)dibenzo[b,d]furan-3-sulfonamido)-3-methylbutanoic acid], the IC50 was 175 nM.
In the case of `CCNC(=N)c1ccc2oc3cc(S(=O)(=O)N[C@H](C(=O)O)C(C)C)ccc3c2c1` [Compound 128, (S)-2-(8-(N-ethylcarbamimidoyl)dibenzo[b,d]furan-3-sulfonamido)-3-methylbutanoic acid], the IC50 is reported as 73 nM.
For `CC(C)[C@@H](NS(=O)(=O)c1ccc2c(c1)sc1cc(-c3ccco3)ccc12)C(=O)O` [Compound 129, (R)-2-(7-(furan-2-yl)dibenzo[b,d]thiophene-3-sulfonamido)-3-methylbutanoic acid], the IC50 was < 1.5 nM.
`CC(C)[C@H](NS(=O)(=O)c1ccc2c(c1)oc1ccc(-c3nn[nH]n3)cc12)C(=O)O` [Compound 130, (S)-2-(8-(2H-tetrazol-5-yl)dibenzo[b,d]furan-3-sulfonamido)-3-methylbutanoic acid] gave an IC50 of 1900 nM.
`CC(C)[C@H](NS(=O)(=O)c1ccc2c(c1)oc1ccc(-c3ccc(C(F)(F)F)s3)cc12)C(=O)O` [Compound 131, (S)-3-methyl-2-(8-(5-(trifluoromethyl)thiophen-2-yl)dibenzo[b,d]furan-3-sulfonamido)butanoic acid] was tested, and the IC50 was < 1.5 nM.
`CC(C)[C@H](NS(=O)(=O)c1ccc2c(c1)oc1ccc(-c3nnn(C)n3)cc12)C(=O)O` [Compound 132, (S)-3-methyl-2-(8-(2-methyl-2H-tetrazol-5-yl)dibenzo[b,d]furan-3-sulfonamido)butanoic acid] was tested, and the IC50 was 2 nM.
`CC(C)[C@@H](NS(=O)(=O)c1ccc2oc3cc(-c4noc(C(C)(C)C)n4)ccc3c2c1)C(=O)O` [Compound 133, (R)-2-(7-(5-tert-butyl-1,2,4-oxadiazol-3-yl)dibenzo[b,d]furan-2-sulfonamido)-3-methylbutanoic acid] showed an IC50 of 8 nM.
`CC(C)[C@H](NS(=O)(=O)c1ccc2c(c1)oc1ccc(-c3oc(Cl)cc3Cl)cc12)C(=O)O` [Compound 134, (S)-2-(8-(3,5-dichlorofuran-2-yl)dibenzo[b,d]furan-3-sulfonamido)-3-methylbutanoic acid] was tested, and the IC50 was 2.5 nM.
With `Cc1ccc(-c2ccc3c(c2)oc2cc(S(=O)(=O)N[C@H](C(=O)O)C(C)C)ccc23)o1` [Compound 135, (S)-3-methyl-2-(7-(5-methylfuran-2-yl)dibenzo[b,d]furan-3-sulfonamido)butanoic acid] the IC50 was < 1.5 nM.
`CC(C)[C@H](NS(=O)(=O)c1ccc2c(c1)oc1cc(-c3cc4ccccc4s3)ccc12)C(=O)O` [Compound 136, (S)-2-(7-(benzo[b]thiophen-2-yl)dibenzo[b,d]furan-3-sulfonamido)-3-methylbutanoic acid] was tested, and the IC50 was < 1.5 nM.
For `CC(C)[C@H](NS(=O)(=O)c1ccc2c(c1)oc1cc(-c3nccs3)ccc12)C(=O)O` [Compound 137, (S)-3-methyl-2-(7-(thiazol-2-yl)dibenzo[b,d]furan-3-sulfonamido)butanoic acid], the IC50 was 11 nM.
With `CC(C)c1nc(-c2ccc3c(c2)oc2ccc(S(=O)(=O)N[C@@H](C(=O)O)C(C)C)cc23)no1` [Compound 138, (R)-2-(7-(5-isopropyl-1,2,4-oxadiazol-3-yl)dibenzo[b,d]furan-2-sulfonamido)-3-methylbutanoic acid] the IC50 was 2.8 nM.
`Cc1nc(-c2ccc3c(c2)oc2ccc(S(=O)(=O)N[C@@H](C(=O)O)C(C)C)cc23)no1` [Compound 139, (R)-3-methyl-2-(7-(5-methyl-1,2,4-oxadiazol-3-yl)dibenzo[b,d]furan-2-sulfonamido)butanoic acid] was tested, and the IC50 was 9.2 nM.
In the case of `CC(C)[C@@H](NS(=O)(=O)c1ccc2oc3cc(-c4noc(C(F)(F)F)n4)ccc3c2c1)C(=O)O` [Compound 141, (R)-3-methyl-2-(7-(5-(trifluoromethyl)-1,2,4-oxadiazol-3-yl)dibenzo[b,d]furan-2-sulfonamido)butanoic acid], the IC50 is reported as 14 nM.
`Cc1ccc(-c2ccc3c(c2)oc2cc(S(=O)(=O)N[C@H](C(=O)O)C(C)C)ccc23)s1` [Compound 142, (S)-3-methyl-2-(7-(5-methylthiophen-2-yl)dibenzo[b,d]furan-3-sulfonamido)butanoic acid] was tested, and the IC50 was 2.5 nM.
`CC(C)[C@H](NS(=O)(=O)c1ccc2c(c1)oc1cc(-c3cc4ccccc4o3)ccc12)C(=O)O` [Compound 143, (S)-2-(7-(benzofuran-2-yl)dibenzo[b,d]furan-3-sulfonamido)-3-methylbutanoic acid] showed an IC50 of 1.1 nM.
`CC(C)[C@@H](NS(=O)(=O)c1ccc2oc3cc(-c4ccc(Br)s4)ccc3c2c1)C(=O)O` [Compound 144, (R)-2-(7-(5-bromothiophen-2-yl)dibenzo[b,d]furan-2-sulfonamido)-3-methylbutanoic acid] gave an IC50 of 2.2 nM.
`Cc1noc(C)c1-c1ccc2c(c1)oc1ccc(S(=O)(=O)N[C@@H](C(=O)O)C(C)C)cc12` [Compound 145, (R)-2-(7-(3,5-dimethylisoxazol-4-yl)dibenzo[b,d]furan-2-sulfonamido)-3-methylbutanoic acid] was tested, and the IC50 was 29 nM.
`Cc1nnc(-c2ccc3oc4cc(S(=O)(=O)N[C@H](C(=O)O)C(C)C)ccc4c3c2)s1` [Compound 146, (S)-3-methyl-2-(8-(5-methyl-1,3,4-thiadiazol-2-yl)dibenzo[b,d]furan-3-sulfonamido)butanoic acid] was tested, and the IC50 was 1.7 nM.
In the case of `CC(C)[C@@H](NS(=O)(=O)c1ccc2oc3cc(-c4noc(C5CC5)n4)ccc3c2c1)C(=O)O` [Compound 147, (R)-2-(7-(5-cyclopropyl-1,2,4-oxadiazol-3-yl)dibenzo[b,d]furan-2-sulfonamido)-3-methylbutanoic acid], the IC50 is reported as < 1.5 nM.
